# In publication PMC12332667, “Role of Structural Modifications in Peptidomimetic Compounds as Potential Antimicrobial Agents against Staphylococcus aureus and Streptococcus pyogenes: Balancing Bioavailability, Safety, and Antimicrobial Activity” (ACS Omega, 2025):
# Like-named read-outs stand apart in the source and are kept apart here. Residues, ends and D or L forms follow the SMILES beside them.
# Legend:
# S. pyogenes ATCC 19615 = test: MIC/MBC broth microdilution, S. pyogenes; type: cell-based, Streptococcus pyogenes
# How it was run: (§1)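 Broth microdilution per NCCLS in BHI, ~10^5 CFU/mL inoculum, serially diluted peptidomimetics (stock 1024 μg/mL in water with 5–10% ethanol or DMSO), 18 h at 37 °C. MIC: lowest concentration with no obvious growth (≥90% of untreated); MBC: ≤3 colonies, ≥99.9% kill.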
# P. vulgaris ATCC 6896 = test: MIC/MBC broth microdilution, P. vulgaris; type: cell-based, Proteus vulgaris
# How it was run: as §1
# S. intemrdius c.i. = test: MIC/MBC broth microdilution, S. intermedius; type: cell-based, Staphylococcus intermedius
# How it was run: as §1
# S. mutans c.i. = test: MIC/MBC broth microdilution, S. mutans; type: cell-based, Streptococcus mutans
# How it was run: as §1
# S. schleiferi c.i. = test: MIC/MBC broth microdilution, S. schleiferi; type: cell-based, Staphylococcus schleiferi
# How it was run: as §1
# E. faecalis c.i. = test: MIC/MBC broth microdilution, E. faecalis; type: cell-based, Enterococcus faecalis
# How it was run: as §1
# S. agalactiae ATCC 27956 = test: MIC/MBC broth microdilution, S. agalactiae; type: cell-based, Streptococcus agalactiae; settings: Streptococcus agalactiae, ATCC27956, S. agalactiae; for MBC: read-out: MBC; for MIC: read-out: MIC
# How it was run: as §1
# S. cohnii c.i. = test: MIC/MBC broth microdilution, S. cohnii; type: cell-based, Staphylococcus cohnii; settings: for MIC: read-out: MIC
# How it was run: as §1
# E. coli ATCC 25922 = test: MIC/MBC broth microdilution, E. coli; type: cell-based, Escherichia coli
# How it was run: as §1
# S. aureus ATCC 43300 = test: MIC/MBC broth microdilution, S. aureus; type: cell-based, Staphylococcus aureus; settings: S. aureus
# [1] = tested on: primary human keratinocytes; set-up: method as in PMID 28110818; settings: concentrations up to 50 μg/mL; reference number not given, probably ref 22; cited from earlier work
# [2] = tested on: K. pneumoniae ATCC 700603; test: MIC/MBC broth microdilution, K. pneumoniae; type: cell-based
# How it was run: as §1
# P. aeruginosa ATCC 10145 = test: MIC/MBC broth microdilution, P. aeruginosa; type: cell-based
# How it was run: as §1
# [3] = tested on: immortalized human keratinocytes (HaCaT); test: LDH cytotoxicity test, keratinocytes; type: cell-based; settings: LDH, 48 h
# How it was run: (§2)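 HaCaT keratinocytes and 46BR.1N fibroblasts, 5000 cells per well, grown 24 h, then exposed to peptidomimetics at 50, 100 and 150 μg/mL in serum-free medium for 48 h. LDH release in supernatant read at 450 nm, normalized to untreated (0%) and 1% Triton X-100 (maximal) controls.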
# [4] = tested on: human dermal fibroblast cell line (46BR.1N); test: XTT cell proliferation assay, fibroblasts; type: cell-based
# How it was run: (§3)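 Cells at 37 °C, 5% CO2 received peptidomimetics in serum-free HG-DMEM for 48 or 72 h; for 72 h, half the medium was renewed and peptide re-added at 48 h. XTT reagent was then incubated 4 h and absorbance read at 490 nm; Mann–Whitney U test, p ≤ 0.05.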
# [5] = tested on: immortalized human HaCaT keratinocytes; test: XTT cell proliferation assay, keratinocytes; type: cell-based
# How it was run: as §3
# [6] = Stability / presence in human plasma; type: in vitro ADME; settings: 24 h incubation at 37 °C
# Experimental: Blood was drawn from healthy volunteers, and lithium/heparin holding tubes were used to remove the clot by centrifugation. The plasma was aliquoted in sterile conditions and incubated with the desired compounds for 24 h at 37 °C. The samples were prepared under sterile conditions following the previously described protocol. The samples were collected at six time points (0, 1, 2, 3, 6, and 24 h) for determining stability in water solutions, and time points of 0, 10, 20, 30, 40, 50, and 60 min, as well as of 2, 3, 6, and 24 h, for determining stability in human plasma. The analysis was performed by HPLC using a Kromasil C8 column (5 μm, 90 Å, 1.0 mm × 250 mm) monitored by a PDA or ELDS-LT II detector. For quantification, peak areas were compared to a calibration curve calculated by Shimadzu LCsolution Software (Kyoto, Japan). Graphs were prepared in GraphPad Prism (Boston, USA).
# fibroblasts (46BR.1N) = test: LDH cytotoxicity test, fibroblasts; type: cell-based; settings: LDH, 48 h
# How it was run: as §2
# [7] = S. pyogenes, water additive EtOH
# [8] = Staphylococcus intermedius, H2O
# [9] = Staphylococcus intermedius, water additive DMSO
# [10] = Staphylococcus intermedius, water additive EtOH
# [11] = A-196 0.01–10 μg/mL, A-219 above 0.1 μg/mL, A-213 lower concentrations
# [12] = up to 150 μg/mL, A-193 and A-179 after 48 h
smiles,measurement,setting,value
CC(C)C[C@H](NC(=O)[C@H](CCCNC(=N)N)NC(=O)OCc1ccccc1)C(=O)N[C@H](CNC(=O)/C=C/c1ccccc1)C(C)C [Compound A-20],MIC,"S. pyogenes ATCC 19615; S. pyogenes, H2O",8 µg/mL
same,MIC,S. pyogenes ATCC 19615; [7],8 µg/mL
same,MBC,"S. pyogenes ATCC 19615; Streptococcus pyogenes, ATCC19615, S. pyogenes, H2O, read-out: MBC",16 µg/mL
same,MBC,"S. pyogenes ATCC 19615; Streptococcus pyogenes, ATCC19615, S. pyogenes, water additive EtOH, read-out: MBC",16 µg/mL
same,MBC,"S. pyogenes ATCC 19615; Streptococcus pyogenes, ATCC19615, S. pyogenes, water additive DMSO, read-out: MBC",8 µg/mL
same,MIC,"S. pyogenes ATCC 19615; Streptococcus pyogenes, ATCC19615, S. pyogenes, water additive DMSO, read-out: MIC",8 µg/mL
same,MIC,"P. vulgaris ATCC 6896; Proteus vulgaris, ATCC6896, H2O, read-out: MIC",> 512 µg/mL
same,MIC,P. vulgaris ATCC 6896; water additive DMSO,> 512 µg/mL
same,MIC,P. vulgaris ATCC 6896; water additive EtOH,> 512 µg/mL
same,MBC,S. intemrdius c.i.; [8],64 µg/mL
same,MIC,S. intemrdius c.i.; [8],32 µg/mL
same,MBC,S. intemrdius c.i.; [9],32 µg/mL
same,MIC,S. intemrdius c.i.; [9],16 µg/mL
same,MBC,S. intemrdius c.i.; [10],64 µg/mL
same,MIC,S. intemrdius c.i.; [10],32 µg/mL
same,MIC,"S. mutans c.i.; Streptococcus mutans, H2O, read-out: MIC",16 µg/mL
same,MIC,S. mutans c.i.; water additive DMSO,16 µg/mL
same,MIC,S. mutans c.i.; water additive EtOH,16 µg/mL
same,MBC,"S. schleiferi c.i.; Staphylococcus schleiferi, H2O, read-out: MBC",16 µg/mL
same,MIC,"S. schleiferi c.i.; Staphylococcus schleiferi, H2O, read-out: MIC",16 µg/mL
same,MBC,"S. schleiferi c.i.; Staphylococcus schleiferi, water additive DMSO, read-out: MBC",8 µg/mL
same,MIC,"S. schleiferi c.i.; Staphylococcus schleiferi, water additive DMSO, read-out: MIC",8 µg/mL
same,MBC,"S. schleiferi c.i.; Staphylococcus schleiferi, water additive EtOH, read-out: MBC",16 µg/mL
same,MIC,"S. schleiferi c.i.; Staphylococcus schleiferi, water additive EtOH, read-out: MIC",16 µg/mL
same,MBC,"E. faecalis c.i.; Enterococcus faecalis, H2O, read-out: MBC",256 µg/mL
same,MIC,"E. faecalis c.i.; Enterococcus faecalis, H2O, read-out: MIC",128 µg/mL
same,MBC,E. faecalis c.i.; water additive DMSO,256 µg/mL
same,MBC,E. faecalis c.i.; water additive EtOH,256 µg/mL
same,MBC,S. agalactiae ATCC 27956; H2O,256 µg/mL
same,MIC,S. agalactiae ATCC 27956; H2O,128 µg/mL
same,MBC,S. agalactiae ATCC 27956; water additive DMSO,64 µg/mL
same,MIC,S. agalactiae ATCC 27956; water additive DMSO,32 µg/mL
same,MBC,S. agalactiae ATCC 27956; water additive EtOH,128 µg/mL
same,MIC,S. agalactiae ATCC 27956; water additive EtOH,64 µg/mL
same,MBC,"S. cohnii c.i.; Staphylococcus cohnii, H2O, read-out: MBC",64 µg/mL
same,MIC,"S. cohnii c.i.; Staphylococcus cohnii, H2O",128 µg/mL
same,MIC,"S. cohnii c.i.; Staphylococcus cohnii, water additive DMSO",64 µg/mL
same,MIC,"S. cohnii c.i.; Staphylococcus cohnii, water additive EtOH",64 µg/mL
same,MBC,"E. coli ATCC 25922; Escherichia coli, ATCC25922, H2O, read-out: MBC",512 µg/mL
same,MIC,"E. coli ATCC 25922; Escherichia coli, ATCC25922, H2O, read-out: MIC",256 µg/mL
same,MBC,E. coli ATCC 25922; water additive DMSO,512 µg/mL
same,MIC,E. coli ATCC 25922; water additive DMSO,256 µg/mL
same,MBC,E. coli ATCC 25922; water additive EtOH,512 µg/mL
same,MIC,E. coli ATCC 25922; water additive EtOH,256 µg/mL
same,MBC,S. aureus ATCC 43300; water additive DMSO,32 µg/mL
same,MIC,S. aureus ATCC 43300; water additive DMSO,16 µg/mL
same,MBC,S. aureus ATCC 43300; water additive EtOH,32 µg/mL
same,MIC,S. aureus ATCC 43300; water additive EtOH,16 µg/mL
same,MBC,"S. aureus ATCC 43300; Staphylococcus aureus, ATCC43300, H2O, read-out: MBC",32 µg/mL
same,MIC,"S. aureus ATCC 43300; Staphylococcus aureus, ATCC43300, H2O, read-out: MIC",16 µg/mL
same,impact on proliferation,[1],no impact on the proliferation
same,MIC,"[2]; Klebsiella pneumoniae, ATCC700603, H2O, read-out: MIC",> 512 µg/mL
same,MIC,[2]; water additive DMSO,> 512 µg/mL
same,MIC,[2]; water additive EtOH,> 512 µg/mL
same,MIC,"P. aeruginosa ATCC 10145; Pseudomonas aeruginosa, ATCC10145, H2O, read-out: MIC",> 512 µg/mL
same,MIC,P. aeruginosa ATCC 10145; water additive DMSO,> 512 µg/mL
same,MIC,P. aeruginosa ATCC 10145; water additive EtOH,> 512 µg/mL
CC(C)C[C@H](NC(=O)[C@H](CCCNC(=N)N)NC(=O)OCc1ccccc1)C(=O)N[C@H](C(=O)NCCc1ccccc1)C(C)C [Compound A-196] (HELM PEPTIDE1{[O=C(OCc1ccccc1)[*:2]].R.L.V.[c1ccc(CCN[*:1])cc1]}$$$$V2.0),concentration at which cytotoxic effect starts,[3],150 µg/mL
same,MBC,"S. pyogenes ATCC 19615; S. pyogenes, water additive DMSO",256 µg/mL
same,MBC,S. pyogenes ATCC 19615; [7],256 µg/mL
same,MIC,P. vulgaris ATCC 6896; H2O,> 512 µg/mL
same,MIC,P. vulgaris ATCC 6896; water additive DMSO,> 512 µg/mL
same,MIC,P. vulgaris ATCC 6896; water additive EtOH,> 512 µg/mL
same,pro-proliferative effect above control,[4]; [11],5–20%
same,antiproliferative effect (decrease vs control),[4]; [12],up to 50%
same,pro-proliferative effect above control,[5]; [11],5–20%
same,antiproliferative effect (decrease vs control),[5]; [12],up to 50%
same,MIC,S. intemrdius c.i.; H2O,32 µg/mL
same,MBC,S. mutans c.i.; H2O,256 µg/mL
same,MIC,S. mutans c.i.; water additive DMSO,32 µg/mL
same,present in human plasma,[6],85–90%
same,MBC,S. schleiferi c.i.; H2O,16 µg/mL
same,MIC,S. schleiferi c.i.; H2O,16 µg/mL
same,MBC,S. schleiferi c.i.; water additive DMSO,16 µg/mL
same,MIC,S. schleiferi c.i.; water additive DMSO,16 µg/mL
same,MBC,S. schleiferi c.i.; water additive EtOH,32 µg/mL
same,MIC,S. schleiferi c.i.; water additive EtOH,16 µg/mL
same,MIC,E. faecalis c.i.; H2O,> 512 µg/mL
same,MIC,E. faecalis c.i.; water additive DMSO,> 512 µg/mL
same,MBC,E. faecalis c.i.; water additive EtOH,> 512 µg/mL
same,MIC,E. faecalis c.i.; water additive EtOH,512 µg/mL
same,MBC,S. cohnii c.i.; water additive DMSO,256 µg/mL
same,MBC,S. cohnii c.i.; water additive EtOH,256 µg/mL
same,MIC,E. coli ATCC 25922; H2O,> 512 µg/mL
same,MIC,E. coli ATCC 25922; water additive DMSO,> 512 µg/mL
same,MIC,E. coli ATCC 25922; water additive EtOH,> 512 µg/mL
same,MBC,S. aureus ATCC 43300; H2O,256 µg/mL
same,MBC,S. aureus ATCC 43300; water additive DMSO,256 µg/mL
same,concentration at which cytotoxic effect starts,fibroblasts (46BR.1N),150 µg/mL
same,MIC,[2]; H2O,> 512 µg/mL
same,MIC,[2]; water additive DMSO,> 512 µg/mL
same,MIC,[2]; water additive EtOH,> 512 µg/mL
same,MIC,P. aeruginosa ATCC 10145; H2O,> 512 µg/mL
same,MIC,P. aeruginosa ATCC 10145; water additive DMSO,> 512 µg/mL
same,MIC,P. aeruginosa ATCC 10145; water additive EtOH,> 512 µg/mL
